Data on 28 molecules can be found in patent US20100016313A1, “INTESTINAL ALKALINE PHOSPHATASE MODULATORS AND USES THEREOF” (Burnham Institute for Medical Research, priority 2008, published 2010).

One series addresses T1, human IAP (Homo sapiens, UniProt P09923).
T1 construct: made in house; host or cells: COS-1 cells, transient expression from pCMV-Script; conditioned serum-free medium used as enzyme stock
T1 sequence (P09923 20-503 limits assumed): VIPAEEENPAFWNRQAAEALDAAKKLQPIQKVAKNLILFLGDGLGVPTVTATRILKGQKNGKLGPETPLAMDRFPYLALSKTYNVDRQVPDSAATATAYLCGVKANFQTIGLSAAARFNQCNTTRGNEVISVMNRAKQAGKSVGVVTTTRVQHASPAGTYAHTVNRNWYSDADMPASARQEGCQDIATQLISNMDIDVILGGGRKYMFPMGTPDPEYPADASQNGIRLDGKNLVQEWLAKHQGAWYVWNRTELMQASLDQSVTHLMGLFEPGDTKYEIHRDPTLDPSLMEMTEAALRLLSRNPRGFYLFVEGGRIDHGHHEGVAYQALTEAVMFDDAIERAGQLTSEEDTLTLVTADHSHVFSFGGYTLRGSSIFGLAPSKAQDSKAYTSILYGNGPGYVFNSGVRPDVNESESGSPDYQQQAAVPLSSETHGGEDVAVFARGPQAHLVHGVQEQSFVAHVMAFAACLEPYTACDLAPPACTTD
Kind of series: IAP assay using CDP-Star (chemiluminescent, dose response). The note with it: IAP modulators, Tables A-H, positive = inhibitor; for n (Hill coefficient): negative = activator; for IC50: negative Hill coefficient = activator. The series is classed as biochemical. The text has this: An expression vector pCMV-Script containing cDNA for human IAP, TNAP, PLAP, GCAP, mouse TNAP, dIAP, EAP or gIAP in secreted form (FLAG-tagged) is transfected into COS-1 cells for transient expression using a standard electroporation method. The GPI anchoring site is replaced by a FLAG sequence to make the proteins secreted into the media as well as to test their kinetics in a form immobilized by anti-FLAG antibody (Narisawa, et al, 2007). Medium is changed to serum free medium Opti-MEM (Invitrogen) 24 h later, and media containing secreted proteins was collected 66 hr after electroporation. Conditioned medium filtered by a 2 μm cellulose acetate membrane is supplemented with 0.1% BSA, aliquotted and stored at −80° C.
Human IAP is produced on a large scale to be used in the primary high throughput screening. For a maximum of 200,000 wells including a blank and negative control in each plate, approximately 1600 ml of the recombinant human IAP working solution (8 μl/well×200,000) is used. The working solution is a 1:80 dilution of the stock solution that has AP activity showing ΔOD405 (velocity) ˜300 in 5 min pNPP calorimetric assay. Therefore a minimum of 20 ml of the stock solution (1600÷80) is needed. An enzyme stock is prepared from ten 15 cm φ plates of COS-1 cells using 100 μg plasmid DNA [ten plates×(10 μg DNA/1×10^7 cells per 15 cm φ plate)].
Compound aliquots (4 μL at […] in 10% DMSO) are added to 8 μL of human IAP working solution of a the human IAP stock solution diluted 1:80 in assay buffer (250 mM DEA, pH 9.8, −2.5 mM MgCl2, −0.05 μM ZnCl2). The solution of substrate CDP-Star, disodium 2-chloro-5-(4-methoxyspiro{1,2-dioxetane-3,2′(5′-chloro)-tricyclo[3.3.1.1]3,7 decan}-4-yl)-1-phenyl phosphate (New England Biolabs), (8 μL of 125 μM in water) is added to each well. […] Dispensing of human IAP working solution and CDP-Star is processed using a WellMate bulk dispenser (Matrix). Plates (white 384-well small volume Greiner 784075) are incubated at room temperature for 30 min, and the luminescence signal is measured using a PerkinElmer EnVision multi-mode plate reader. L-Phenylalanine (1 mM final concentration) and 2% DMSO is utilized as an inhibition control and blank, respectively. Data analysis is processed using CBIS software (ChemInnovations, Inc).
The compound is diluted ([…] to 0.03 mM) and incubated with the human IAP enzyme for 30 min prior to addition of substrate. At the same time, human TNAP, human PLAP, human GCAP, mouse TNAP, mouse dIAP, mouse EAP and mouse gIAP is tested to determine enzyme specificity.

A short description of series [1]: Kinetic parameters of recombinant mouse dIAP, gIAP and EAP using p-NPP as substrate. The series is classed as biochemical. From the text: The epithelium of the mouse small intestine expresses two intestine specific AP genes, Akp3 and Akp6, and low levels of Akp5, which is not intestine specific (Narisawa, et al, 2007). AP proteins encoded by Akp3, Akp5 and Akp6 were designated duodenal IAP or dIAP, embryonic AP or EAP and global IAP or gIAP, respectively.

[2] abbreviates: p-NPP as substrate, pH 9.8, means ± SD.

As usually defined, the IC50 is the concentration needed to halve the response being measured. Low readings indicate greater potency in that assay, high ones weaker potency in that assay. As usually defined, the Km is the concentration of substrate that gives half-maximal velocity. A word on the kcat: it is the number of substrate molecules converted per active site and unit of time at saturation.

For the molecule `O=C1C2CC=CCC2C(=O)N1c1ncn[nH]1` (centres unmarked) [Compound F4, 2-(1H-1,2,4-triazol-5-yl)-3a,4,7,7a-tetrahydro-1H-isoindole-1,3(2H)-dione], on human IAP, the “n (Hill coefficient)” value was −1.61 and the IC50 turned out to be 34.5 µM. On to `CC(=O)Nc1nnc(SCc2ccc(Br)cc2)[nH]1` [Compound H2, N-[5-(4-bromobenzylthio)-4H-1,2,4-triazol-3-yl)acetamide], for which, at human IAP, the “n (Hill coefficient)” value is listed as −0.563 and the IC50 was determined as 86.4 µM. Consider `COc1ccc(-c2nnc3oc(O)cc(C)c2-3)cc1` [Compound E5, 3-(4-methoxyphenyl)-4-methylpyrano[2,3-c]prazol-6-ol], for which, at human IAP, the “n (Hill coefficient)” value is on record as −1.89 and half-maximal inhibition (IC50) was put at 21.1 µM. In the same order, the values of `O=C1C2CC=CCC2C(=O)N1c1nc(-c2cccnc2)n[nH]1` (centres unmarked) [Compound F7, 2-[3-(pyridin-3-yl)-1H-1,2,4-triazol-5-yl)-3a,4,7,7a-tetrahydro-1H-isoindole-1,3(2H)-dione] are 0.927 and 1.77 µM. The molecule `Cc1ccc(-c2cc(C(=O)O)[nH]n2)c(C)c1` [Compound B7, 3-(2,4-dimethylphenyl)-1H-pyrazole-5-carboxylic acid] gave an IC50 against human IAP of over 100 µM.

In the case of `CC(C)c1ccc(-c2cc(C(=O)O)[nH]n2)cc1` [Compound B3, 3-(4-isopropylphenyl)-1H-pyrazole-5-carboxylic acid], on human IAP, the “n (Hill coefficient)” value was −4.38 and it took 98.3 µM to reach half-maximal inhibition (IC50). For the molecule `CN(C(=O)COC(=O)c1cc(-c2ccc(Br)cc2)[nH]n1)C1CCCCC1` [Compound A11, 2-[cyclohexyl(methyl)amino]-2-oxoethyl 5-(4-bromophenyl)-1H-pyrazole-3-carboxylate], on human IAP, the IC50 is over 100 µM. In the case of `CC(OC(=O)c1cc(-c2ccc(Br)cc2)[nH]n1)C(=O)NC(C)(C)C` (stereo not drawn) [Compound A13, 1-(tert-butylamino)-l-oxopropan-2-yl 5-(4-bromophenyl)-1H-pyrazole-3-carboxylate], on human IAP, the “n (Hill coefficient)” value is on record as −1 and the midpoint of inhibition, the IC50, lay at 93.4 µM. At human IAP, `CCOC(=O)c1cc(-c2ccc(Cl)cc2)n[nH]1` [Compound B17, ethyl 3-(4-chlorophenyl)-1H-pyrazole-5-carboxylate] yielded an IC50 of over 100 µM. On to `COC(=O)c1cc(-c2ccccc2)n[nH]1` [Compound A8, methyl 5-phenyl-1H-pyrazole-3-carboxylate], for which the IC50 at human IAP was over 100 µM. `O=C(O)c1cc(-c2ccc(Cl)cc2)n[nH]1` [Compound A2, 5-(4-chlorophenyl)-1H-pyrazole-3-carboxylic acid] returned an IC50 at human IAP of over 100 µM. The same measure, in the same setting: for `CCOc1ccc(Cl)cc1S(=O)(=O)Nc1cccnc1` [Compound G3, 5-chloro-2-ethoxy-N-(pyridin-3-yl)benzenesulfonamide] the value was over 100 µM. For `CC(C)(C)C(=O)COC(=O)c1cc(-c2ccc(Br)cc2)[nH]n1` [Compound A12, 3,3-dimethyl-2-oxobutyl 5-(4-bromophenyl)-1H-pyrazole-3-carboxylate], on human IAP, the “n (Hill coefficient)” value is −1.09 and the midpoint of inhibition, the IC50, lay at 42.8 µM.

`COC(=O)c1cc(-c2ccc3ccccc3c2)[nH]n1` [Compound C1, methyl 3-(nahthylen-2-yl)-1H-pyrazole-5-carboxylate]: at human IAP, the IC50 was over 100 µM. For `O=C1C2CC=CCC2C(=O)N1c1nc(CCc2ccccc2)n[nH]1` (centres unmarked) [Compound F9, 2-(3-phenethyl-1H-1,2,4-triazol-5-yl)-3a,4,7,7a-tetrahydro-1H-isoindole-1,3(2H)-dione], at human IAP, the “n (Hill coefficient)” value came out at 0.616 and the IC50 stood at 0.724 µM.

As for `Cc1ccccc1S(=O)(=O)Nc1cc2ccccc2nc1Cl` [Compound G6, N-(2-chloroquinolin-3-yl)-2-methylbenzenesulfonamide], the IC50 on human IAP was over 100 µM. For `COC(=O)c1cc(-c2ccc(C)cc2)[nH]n1` [Compound A9, methyl 5-(4-methylphenyl)-1H-pyrazole-3-carboxylate], at human IAP, the IC50 was over 100 µM.

Consider `O=C1C2CCCCC2C(=O)N1c1nc(CCc2ccccc2)n[nH]1` (centres unmarked) [Compound F3, 2-(3-phenethyl-1H-1,2,4-triazol-5-yl)-hexahydro-1H-isoindole-1,3(2H)-dione], for which, at human IAP, the “n (Hill coefficient)” value was found to be 0.694 and inhibition was half-maximal at 1.75 µM (IC50). At human IAP, `Cc1ccc(-c2cc(C(=O)O)[nH]n2)cc1` [Compound A4, 5-(4-methylphenyl)-1H-pyrazole-3-carboxylic acid] had an IC50 of over 100 µM. The same measure, in the same setting: for `CCOC(=O)c1[nH]nc2c1COc1ccccc1-2` [Compound E3, ethyl 2,4-dihydrochromeno[3,4-c]pyrazole-3-carboxylate] the value was over 100 µM. `Cn1nc(C(=O)O)cc1-c1ccc(F)cc1` [Compound D2, 5-(4-fluorophenyl)-1-methyl 1H-pyrazole-3 carboxylic acid] registered an IC50 on human IAP of over 100 µM.

Molecule `Cc1c(-c2ccccc2)n[nH]c1C(=O)O` [Compound D3, 4-methyl-5-phenyl-1H-pyrazole-3-carboxylic acid] showed an IC50 on human IAP of over 100 µM. Regarding `COC(=O)c1cc(-c2ccc(Cl)cc2Cl)n[nH]1` [Compound B12, methyl 3-(2,4-dichlorophenyl)-1H-pyrazole-5-carboxylate], at human IAP, the “n (Hill coefficient)” value is −1.3 and the IC50 stood at 9.32 µM. At human IAP, `Cn1nc(-c2ccc(F)cc2)cc1C(=O)O` [Compound D1, 3-(4-fluorophenyl)-1-methyl 1H-pyrazole-5 carboxylic acid] displayed an IC50 of over 100 µM. As to `CCCCOc1ccc(-c2cc(C(=O)OC)[nH]n2)cc1` [Compound B15, methyl 3-(4-butoxyphenyl)-1H-pyrazole-5-carboxylate], the IC50 against human IAP was over 100 µM. At human IAP, `COc1ccc(-c2cc(C(=O)O)n[nH]2)cc1` [Compound A3, 5-(4-methoxyphenyl)-1H-pyrazole-3-carboxylic acid] registered an IC50 of over 100 µM. Take `COc1ccc(-c2n[nH]c3oc(=O)cc(C)c23)cc1` [Compound E4, 3-(4-methoxyphenyl)-4-methylpyrano[2,3-c]pyrazol-6(1H)-one]: at human IAP, the “n (Hill coefficient)” value is −1.49 and the IC50 came out at 23.7 µM.

B1: dIAP: recombinant mouse duodenal intestinal alkaline phosphatase encoded by Akp3 (protein, UniProt P24822 20-528, looked up)
Intestinal-type alkaline …: VIPVEEENPAFWNKKAAEALDAAKKLQPIQTSAKNLIIFLGDGMGVPTVTATRILKGQLEGHLGPETPLAMDRFPYMALSKTYSVDRQVPDSASTATAYLCGVKTNYKTIGLSAAARFDQCNTTFGNEVFSVMYRAKKAGKSVGVVTTTRVQHASPSGTYVHTVNRNWYGDADMPASALREGCKDIATQLISNMDINVILGGGRKYMFPAGTPDPEYPNDANETGTRLDGRNLVQEWLSKHQGSQYVWNREQLIQKAQDPSVTYLMGLFEPVDTKFDIQRDPLMDPSLKDMTETAVKVLSRNPKGFYLFVEGGRIDRGHHLGTAYLALTEAVMFDLAIERASQLTSERDTLTIVTADHSHVFSFGGYTLRGTSIFGLAPLNALDGKPYTSILYGNGPGYVGTGERPNVTAAESSGSSYRRQAAVPVKSETHGGEDVAIFARGPQAHLVHGVQEQNYIAHVMASAGCLEPYTDCGLAPPADESQTTTTTRQTTITTTTTTTTTTTTPVHN
As for B1, in series [1] (setting [2]), the Michaelis-Menten constant (Km) stood at 1100 ± 340 µM and the kcat was 339 ± 13 s⁻¹. The Km in series [1] (pNPP assay, recombinant enzyme, repeated in text) stood at 1100 ± 340 µM.
